# According to patent US12138346B2, “Physiologically active substance carrier” (LEMONEX INC., priority 2017, dated 2024):
# B1: RNase A: RNase A (Sigma Aldrich, R6513), fluorescence labeled, loaded on particles of Example 1-(9) (protein, UniProt P61823 27-150, looked up)
# Ribonuclease pancreatic: KETAAAKFERQHMDSSTSAASSSNYCNQMMKSRNLTKDRCKPVNTFVHESLADVQAVCSQKNVACKNGQTNCYQSYSTMSITDCRETGSSKYPNCAYKTTQANKHIIVACEGNPYVPVHFDASV
# modifications: fluorescence labeled
# Tests used:
# Assay type in all cases: physicochemical
# [1] = Release of irinotecan from porous silica particles in human plasma; details: loaded on negatively charged particles of Example 2-(3)-1), 37° C., 200 rpm
# Method: 1 mg of porous silica particles loaded with irinotecan (0.2 mg) was dispersed in 1 mL of human plasma. This solution was maintained in a dynamic condition for horizontal agitation at 37° C. and 200 rpm. The irinotecan-loaded porous silica solution was settled by a centrifugal separator at each time point, an absorbance of the supernatant (λab=255 or 278 nm) was measured to determine an amount of released irinotecan, and results thereof are shown in FIG. 14.
# [2] = Release of doxorubicin from porous silica particles; details: loaded on porous silica particles of Example 1-(1); PBS, 37° C., 200 rpm
# Method: 0.5 mg of porous silica particles loaded with doxorubicin (0.1 mg) was dispersed in PBS. This solution was maintained in a dynamic condition for horizontal agitation at 37° C. and 200 rpm. The doxorubicin-loaded porous silica solution was settled by a centrifugal separator at each time point, an absorbance of the supernatant (λab=480 nm) was measured to determine an amount of released doxorubicin, and results thereof are shown in FIG. 13.
# [3] = Release of Cy5-siRNA from porous silica particles; details: Cy5-siRNA loaded on particles of Example 2-(1)-2)(ii); SBF (pH 7.4, 37° C.), 60 rpm
# Method: 10 μl of the porous silica particles loaded with Cy5-siRNA was re-suspended in SBF (pH 7.4, 37° C.) and then put in a permeable membrane having a pore diameter of 20 kDa (tube in FIG. 18).
# Thereafter, the permeable tube was dipped in 1.5 ml of SBF.
# Before 24 hours, the released solvent was recovered at a time passing 0.5, 1, 2, 4, 8, 12 and 24 hours. Thereafter, 0.5 ml of released solvent was recovered at an interval of 24 hours for fluorescence measurement, followed by addition of SBF in equal amount.
# Fluorescent intensity of Cy5-siRNA was measured at a wavelength of 670 nm (λex=647 nm) to determine a release degree of siRNA, and results thereof are shown in FIG. 19.
# [4] = Release of sorafenib from porous silica particles; details: loaded on particles of Example 1-(11)-5)(i) (hydrophobic substituent); 1×PBS, 37° C., 200 rpm
# Method: 1 mg of porous silica particles loaded with sorafenib (0.1 mg) was dispersed in 10 mL of 1×PBS mL. This solution was maintained in a dynamic condition for horizontal agitation at 37° C. and 200 rpm. The sorafenib-loaded porous silica solution was settled by a centrifugal separator at each time point, an absorbance of the supernatant (λab=270 nm) was measured to determine an amount of released sorafenib, and results thereof are shown in FIG. 15.
# [5] = Release of p53 peptides from porous silica particles; details: loaded on particles of Example 1-(11)-5)(i), 37° C., 20 rpm
# Method: 5 mg of particles loaded with p53 peptides was put in 5 mL of 1×PBS containing 10% FBS or 5 mL of 1×PBS, and held in a dynamic environment while rotating at 37° C. and 20 rpm. The solution was centrifuged at 8500 rpm at each time point, and a fluorescent intensity of 5(6)-carboxy fluorescein (FAM) as a fluorescent label coupled to p53 peptide in the supernatant was measured ([…]: 480 nm, Emission: 520 nm).
# [6] = Release of RNase A from porous silica particles; details: over 250 hours or more; SBF (pH 7.4) or PBS (pH 7.4), 37° C.; loaded on particles of Example 1-(9)
# Method: 100 μg of the porous silica particles loaded with RNase A having fluorescence labeled therewith was re-suspended in 200 μl of SBF (pH 7.4) or PBS (pH 7.4).
# Release of RNase A was performed at 37° C. while horizontally stirring at 60 rpm.
# At a time point of 6, 12, 24, 48, 96, 144 and 240 hours, 200 μl of released solvent was recovered for fluorescence measurement, followed by addition of SBF or PBS in equal amount.
molecule,measurement,setting,value
CCc1c2c(nc3ccc(OC(=O)N4CCC(N5CCCCC5)CC4)cc13)-c1cc3c(c(=O)n1C2)COC(=O)[C@]3(O)CC [irinotecan],irinotecan released,[1]; after 5.5 hours,about 50%
same,time over which irinotecan was continuously released,[1],≥ 120 h
COc1cccc2c1C(=O)c1c(O)c3c(c(O)c1C2=O)C[C@@](O)(C(=O)CO)C[C@@H]3O[C@H]1C[C@H](N)[C@H](O)[C@H](C)O1 [doxorubicin],release of doxorubicin (in words),[2],relatively quickly released
same,time over which doxorubicin was continuously released,[2],≥ 70 h
"siRNA: 21 base pair duplex siRNA that targets green fluorescent protein (GFP), SEQ ID NO: 1 and 2; loaded on particles of Example 2-(1)-2)(ii) (sense GGCUACGUCCAGGAGCGCACC; antisense UGCGCUCCUGGACGUAGCCUU; Cy5 label, chemistry not fully specified)",time over which 50% of siRNA was released,[3],about 48 hours
CNC(=O)c1cc(Oc2ccc(NC(=O)Nc3ccc(Cl)c(C(F)(F)F)c3)cc2)ccn1 [sorafenib],release of sorafenib (in words),[4],very slowly released
"Z-Gly-Gly-Qln-Ser-Qln-Qln-Thr-Phe-Y-Asn-Leu-Trp-Arg-Leu-Leu-X-Qln-Asn-NH2 (GGXSXXTFXNLWRLLXXN; not fully specified; FAM label; triazole staple; C-terminal amide; p53 peptide; SITE 3 1 - Xaa is Qln; 2 - Xaa is Qln; SITE 9 3 - Xaa is a non-natural amino acid introduced with an alkyne functional group wherein 4-pentynoic acid is introduced at a side chain of D-Lys; SITE 16 4 - Xaa is a non-natural amino acid introduced with an azide functional group and denotes 2-amino-5-azido-pentanoic acid; SITE 17 5 - Xaa is Qln) [FAM-labelled triazole-stapled peptide mimicking p53, antagonist of hMDM2]",release of p53 peptide (in words),[5]; 1×PBS containing 10% FBS,may be released outside the particle
same,release of p53 peptide (in words),[5]; 1×PBS,not released
B1,RNase A released,[6],~100%
